Experimental data: US7879872B2, “Compositions comprising multiple bioactive agents, and methods of using the same” (Affinium Pharmaceuticals, Inc., priority 2003, dated 2011)
Marks after values point to notes of the source that are not given here.

Columns and labels:
S. pneumoniae 22425 = experiment: Combination Time-kill kinetics; format: cell-based; settings: Gatifloxacin alone, 4 × MIC (2 ug/ml)
Protocol: (§1) As used herein, “synergy” refers to the in vitro effect of administration of a combination of an antibacterial agent such as a Fab I inhibiter, and antiinfective agent such that (1) the fractional inhibitory concentration (FIC) is less than or equal to 0.5 in an FIC assay described herein; or (2) there is at least a 100-fold (2 log10) increase in killing at 24 hours for the combination as compared with the bioactive agent alone in a time kill curve assay as described herein. An FIC of ≦0.5 is evidence of synergy. An additive response has an FIC value of >0.5 and less than or equal to 1, while an indifferent response has an FIC value of >1 and ≦2. An additive effect may still indicate that the combination of bioactive agent and cationic peptide are therapeutically useful.

[1] = test system: S. pneumoniae 22425, a penicillin and macrolide resistant clinical isolate; experiment: Combination time-kill studies; format: cell-based; settings: for effect of compound G on the bactericidal activity (kill kinetics, kill extent) of the antibiotic: combination with compound G at 0.03 μg/ml and 1 μg/ml, S. pneumoniae
Protocol: Combination time-kill studies were performed as follows. Bacterial inocula were prepared as for MIC determination according to CLSI guidelines. Log phase cells (˜10^6 CFU/ml) were inoculated into 24 well plates and incubated with the indicated concentrations of compound G and commercial antibiotics for 24 hours at 35° C. At indicated time points samples were removed for determination of viable CFU counts. Results are plotted as log CFU/ml vs. time.

E. faecalis A6221420 = experiment: Combination Time-kill kinetics; format: cell-based; settings: Meropenem alone, 4 × MIC (16 ug/ml)
Protocol: as §1

S. pneumoniae 22257 = experiment: Combination Time-kill kinetics; format: cell-based; settings: antibiotic alone at 4 × MIC (Azithromycin 0.12 ug/ml, Cefuroxime 8 ug/ml)
Protocol: as §1

S. aureus strains = experiment: Checkerboard combination studies of compound G and commercial antibiotics (FIG. 6); format: cell-based; settings: in combination with compound G, S. aureus strains tested
Protocol: Checkerboard experiments were performed and analyzed according to standard procedures as outlined below.

With `COc1c(N2CCNC(C)C2)c(F)cc2c(=O)c(C(=O)O)cn(C3CC3)c12` (stereo not drawn) [Gatifloxacin, reference compound] the “logCFU/ml at Time (hr): 0” value (S. pneumoniae 22425) was 5.18 logCFU/ml, the “logCFU/ml at Time (hr): 2” value (S. pneumoniae 22425) was 4.26 logCFU/ml and the “logCFU/ml at Time (hr): 6” value (S. pneumoniae 22425) was 2.77 logCFU/ml. The “logCFU/ml at Time (hr): 24” value (S. pneumoniae 22425) was ≤ 1.70* logCFU/ml, the “ΔlogCFU/ml (24-0 hr)” value (S. pneumoniae 22425) was −3.48 logCFU/ml and the “bactericidal activity, log reduction in CFU at 24 hours” value ([1]; antibiotic alone, S. pneumoniae 22425, 24 hours, FIG. 8) was −3.5 log. The “effect of compound G on the bactericidal activity (kill kinetics, kill extent) of the antibiotic” value (“effect of compound G” below) [1] was “no effect”.
For `CN(Cc1cc2ccccc2n1C)C(=O)/C=C/c1ccc(NC(=O)CCC(=O)N2CCOCC2)nc1` [Example 216, (E)-N-(5-{2-[Methyl-(1-methyl-1H-indol-2-ylmethyl)carbamoyl]vinyl}pyridin-2-yl)-4-morpholin-4-yl-4-oxo-butyramide], the melting point was 206 to 209 °C (dec.).
In the case of `C[C@@H](O)[C@H]1C(=O)N2C(C(=O)O)=C(S[C@@H]3CN[C@H](C(=O)N(C)C)C3)[C@H](C)[C@H]12` [Meropenem, reference compound], the “logCFU/ml at Time (hr): 0” value (E. faecalis A6221420) is reported as 5.12 logCFU/ml, the “logCFU/ml at Time (hr): 2” value (E. faecalis A6221420) is reported as 4.31 logCFU/ml and the “logCFU/ml at Time (hr): 4” value (E. faecalis A6221420) is reported as 3.41 logCFU/ml. For the same molecule, the “logCFU/ml at Time (hr): 8” value (E. faecalis A6221420) was 2.67 logCFU/ml, the “logCFU/ml at Time (hr): 24” value (E. faecalis A6221420) was ≤ 1.70* logCFU/ml and the “ΔlogCFU/ml (24-0 hr)” value (E. faecalis A6221420) was −3.43 logCFU/ml.
With `CO/N=C(\C(=O)N[C@@H]1C(=O)N2C(C(=O)O)=C(COC(N)=O)CS[C@H]12)c1ccco1` [Cefuroxime, reference compound] the “logCFU/ml at Time (hr): 0” value (S. pneumoniae 22257) was 6.39 logCFU/ml, the “logCFU/ml at Time (hr): 3” value (S. pneumoniae 22257) was 1.92 logCFU/ml and the “logCFU/ml at Time (hr): 6” value (S. pneumoniae 22257) was 1.70 logCFU/ml. The “logCFU/ml at Time (hr): 8” value (S. pneumoniae 22257) was ≤ 1.70* logCFU/ml, the “logCFU/ml at Time (hr): 24” value (S. pneumoniae 22257) was ≤ 1.70* logCFU/ml and the “ΔlogCFU/ml (24-0 hr)” value (S. pneumoniae 22257) was −4.69 logCFU/ml. For the same molecule, the “effect of compound G” value [1] was “no effect”.
For `CC(=O)NC[C@H]1CN(c2ccc(N3CCOCC3)c(F)c2)C(=O)O1` [linezolid], the “combination effect with compound G (synergistic / additive / antagonism)” value (S. aureus strains) was “synergistic effect”.
For `CN1CCN(C(=O)CCC(=O)Nc2ccc(/C=C/C(=O)N(C)Cc3cc4ccccc4n3C)cn2)CC1` [Example 215, (E)-N-(5-{2-[Methyl-(1-methyl-1H-indol-2-Ylmethyl)carbamoyl]vinyl}pyridin-2-yl)-4-(4-methyl-piperazin-1-yl)-4-oxo-butyramide], the melting point was 145 to 147 °C (dec.).
In the case of `CN(Cc1cc2ccccc2n1C)C(=O)/C=C/c1ccc(NC(=O)CCC(N)=O)nc1` [Example 214, (E)-N-(5-{2-[Methyl-(1-methyl-1H-indol-2-ylmethyl)carbamoyl]vinyl}pyridin-2-yl)succinamide], the melting point is reported as 225 to 227 °C.
With `CC[C@H]1OC(=O)[C@H](C)[C@@H](O[C@H]2C[C@@](C)(OC)[C@@H](O)[C@H](C)O2)[C@H](C)[C@@H](O[C@@H]2O[C@H](C)C[C@H](N(C)C)[C@H]2O)[C@](C)(O)C[C@@H](C)CN(C)[C@H](C)[C@@H](O)[C@]1(C)O` [Azithromycin, reference compound] the “logCFU/ml at Time (hr): 0” value (S. pneumoniae 22257) was 6.35 logCFU/ml, the “logCFU/ml at Time (hr): 3” value (S. pneumoniae 22257) was 4.53 logCFU/ml and the “logCFU/ml at Time (hr): 6” value (S. pneumoniae 22257) was 3.39 logCFU/ml. For the same molecule, the “logCFU/ml at Time (hr): 8” value (S. pneumoniae 22257) was ≤ 1.70* logCFU/ml, the “logCFU/ml at Time (hr): 24” value (S. pneumoniae 22257) was ≤ 1.70* logCFU/ml and the “ΔlogCFU/ml (24-0 hr)” value (S. pneumoniae 22257) was −4.65 logCFU/ml. The “effect of compound G” value [1] was “no effect”.
With Gentamicin the “combination effect with compound G (synergistic / additive / antagonism)” value (S. aureus strains) was “synergistic effect”.
With `CN(Cc1cc2ccccc2n1C)C(=O)/C=C/c1ccc(N2C(=O)CCC2=O)nc1` [Example 213, (E)-3-[6-(2,5-Dioxo-pyrrolidin-1-yl)pyridin-3-yl]-N-methyl-N-(1-methyl-1H-indol-2-ylmethyl)acrylamide] the melting point was 185 to 187 °C.
